Here are results for five molecules from ChEMBL document CHEMBL3272066, “Synthesis of nitrosourea derivatives of sucrose as central nervous system anticancer agents” (J Med Chem, 1977).

The test system of data set [1] is L1210. The experiment in a line: Antitumor activity against mouse L1210 cells allografted in CDF1 mouse at 50 mg/kg, ip administered from day 1 to day 9 relative to control. Type of data set: functional. Particulars: route intraperitoneal.
Data set [2] deals with L1210. Description: Antitumor activity against mouse L1210 cells allografted in CDF1 mouse at 100 mg/kg, ip administered from day 1 to day 9 relative to control. The data set is classed as functional. The settings on record: route intraperitoneal.
Data set [3] has as its system L1210. The experiment in a line: Antitumor activity against mouse L1210 cells allografted in CDF1 mouse at 200 mg/kg, ip administered from day 1 to day 9 relative to control. The data set is classed as functional. The settings on record: route intraperitoneal.
The nature of data set [4]: Antitumor activity against mouse ependymoblastoma cells allografted in […] mouse at 50 mg/kg, ip administered from day 1 to day 5 relative to control. Type of data set: functional. The settings on record: route intraperitoneal.
A short description of data set [5]: Antitumor activity against mouse ependymoblastoma cells allografted in […] mouse at 100 mg/kg, ip administered from day 1 to day 5 relative to control. Type of data set: functional. The settings on record: route intraperitoneal.
Data set [6] is described as follows: Antitumor activity against mouse ependymoblastoma cells allografted in […] mouse at 200 mg/kg, ip administered from day 1 to day 5 relative to control. Particulars: route intraperitoneal. The data set is classed as functional.
A further data set has as its system Mus musculus. Description: Toxicity in […] mouse allografted with mouse ependymoblastoma cells at 400 mg/kg, ip administered from day 1 to day 5 relative to control. The data set is classed as organism-based. Further details: dose 400 mg/kg, route intraperitoneal. The settings on record: in vivo.
Data set [7] concerns L1210. The experiment in a line: Antitumor activity against mouse L1210 cells allografted in CDF1 mouse at 29 mg/kg, ip administered from day 1 to day 9 relative to control. The data set is classed as functional. The settings on record: route intraperitoneal.
The subject of data set [8] is L1210. Description: Antitumor activity against mouse L1210 cells allografted in CDF1 mouse at 44 mg/kg, ip administered from day 1 to day 9 relative to control. The data set is classed as functional. Particulars: route intraperitoneal.
Data set [9] has as its system L1210. Description: Antitumor activity against mouse L1210 cells allografted in CDF1 mouse at 66 mg/kg, ip administered from day 1 to day 9 relative to control. Type of data set: functional. Particulars: route intraperitoneal.
A short description of data set [10]: Antitumor activity against mouse ependymoblastoma cells allografted in C57BL/6 mouse at 130 mg/kg, ip administered from day 1 to day 5 relative to control. The data set is classed as functional. The settings on record: route intraperitoneal.
Data set [11] can be described thus: Antitumor activity against mouse ependymoblastoma cells allografted in C57BL/6 mouse at 100 mg/kg, ip administered from day 1 to day 5 relative to control. Type of data set: functional. The settings on record: route intraperitoneal.

In general, T/C refers to the ratio of treated to control. Consider `CN(N=O)C(=O)NC[C@H]1O[C@@](CNC(=O)N(C)N=O)(O[C@H]2O[C@H](CNC(=O)N(C)N=O)[C@@H](O)[C@H](O)[C@H]2O)[C@@H](O)[C@@H]1O`, for which the T/C is given as 110% in the data set on L1210 [1]; 117% in the data set on L1210 [2]; 137% with L1210 [3]; 97% in data set [4]; 120% in data set [5]; 133% in data set [6]. Also, the Activity entry in the data set on Mus musculus is given as “Non-toxic”.

On to `CN(N=O)C(=O)NC[C@H]1O[C@@](CO)(O[C@H]2O[C@H](CNC(=O)N(C)N=O)[C@@H](O)[C@H](O)[C@H]2O)[C@@H](O)[C@@H]1O`, for which the T/C was determined as 107% in the data set on L1210 [1]; 129% with L1210 [2]; 137% in the data set on L1210 [3]; 111% in data set [4]; 97% in [5]; 148% in data set [6]. Moreover, the Activity result in the data set with Mus musculus was “Toxic”.

Regarding `CC(=O)OC[C@@]1(O[C@H]2O[C@H](CNC(=O)N(C)N=O)[C@@H](OC(C)=O)[C@H](OC(C)=O)[C@H]2OC(C)=O)O[C@H](CNC(=O)N(C)N=O)[C@@H](OC(C)=O)[C@@H]1OC(C)=O`, the T/C is recorded as 109% in the data set with L1210 [1], 105% in the data set on L1210 [2] and 119% with L1210 [3].

For the molecule `CC(=O)O[C@@H]1[C@@H](OC(C)=O)[C@@H](O[C@]2(CNC(=O)N(C)N=O)O[C@H](CNC(=O)N(C)N=O)[C@@H](OC(C)=O)[C@@H]2OC(C)=O)O[C@H](CNC(=O)N(C)N=O)[C@H]1OC(C)=O`, the values for the T/C in the data set on L1210 [1], in the data set on L1210 [2] and in the data set on L1210 [3] were 104%, 102% and 120%, respectively.

With `CN(N=O)C(=O)N[C@@H](C=O)[C@@H](O)[C@H](O)[C@H](O)CO` [STREPTOZOCIN], the T/C stood at 107% in the data set on L1210 [2]; 117% in the data set with L1210 [7]; 137% in the data set with L1210 [8]; 109% with L1210 [9]; 127% in [10]; 144% in data set [11].
